Measured values reported in publication PMC5487684, “Safety, Pharmacokinetics, and Antiviral Activity of a Novel HIV Antiviral, ABX464, in Treatment-Naive HIV-Infected Subjects in a Phase 2 Randomized, Controlled Study” (Antimicrobial Agents and Chemotherapy, 2017).

Test system: HIV-infected subjects
Assay: Safety and tolerability (TEAEs, ECG, laboratory) after repeated oral administration, phase 2a study
Assay type: in vivo, human
Conditions: for Subjects experiencing at least one TEAE: Abdominal pain / Subjects experiencing at least one TEAE: Arthralgia / Subjects experiencing at least one TEAE: Back pain / Subjects experiencing at least one TEAE: Diarrhea / Subjects experiencing at least one TEAE: Flank pain / Subjects experiencing at least one TEAE: Gastrointestinal disorders / Subjects experiencing at least one TEAE: Headache / Subjects experiencing at least one TEAE: Injury, poisoning, and procedural complications / Subjects experiencing at least one TEAE: Musculoskeletal and connective tissue disorders / Subjects experiencing at least one TEAE: Nausea / Subjects experiencing at least one TEAE: Neck pain / Subjects experiencing at least one TEAE: Nervous system disorders / Subjects experiencing at least one TEAE: Pain in extremity / Subjects experiencing at least one TEAE: Sciatica, back pain / Subjects experiencing at least one TEAE: Skin abrasion / Subjects experiencing at least one TEAE: Total / Subjects experiencing at least one TEAE: Upper abdominal pain / Subjects experiencing at least one TEAE: Vomiting: fasted
Experimental: Participants were assigned to one of eight groups; each group (with one exception) included eight subjects receiving either ABX464 (n = 6) or the corresponding placebo (n = 2) according to a randomization code. […] In the present study with HIV-infected subjects, the first dose administered was 25 mg, given once or 3 times a day over a 2- to 3-week period. This initial dose was therefore considered safe for assessment of the safety and tolerability of ABX464 after repeated oral administrations in subjects infected by HIV and determination of the potential effect on the HIV viral load.
The final dosing protocol for each of the eight groups was as follows: group 1, 25 mg every 3 days for 2 to 3 weeks under fasted conditions; group 2, 25 mg once a day (q.d.) for 2 to 3 weeks under fasted conditions; group 3, 50 mg once a day for 2 to 3 weeks under fasted conditions; group 4, 50 mg 3 times a day (t.i.d.) for 4 weeks under fed conditions; group 5, 75 mg once a day for 2 weeks under fed conditions; group 6, 100 mg once a day for 2 to 3 weeks under fasted conditions; group 7, 150 mg every 3 days for 2 to 3 weeks under fed conditions; and group 8, 150 mg once a day for 2 weeks under fed conditions. Per the study protocol, the treatment period was defined as 2 weeks. […] The decision to proceed to the next highest dose was determined by the data and safety monitoring board after review of the laboratory safety data, vital signs, ECGs, and adverse event reports from the group receiving the current dose after 2 weeks of treatment.
Subjects were hospitalized from the day prior to the first dose to at least the morning of day 2. They were orally dosed with 25-mg capsules of ABX464 with 240 ml water under fed or fasted conditions. According to the group, subjects were dosed with 1, 2, 3, 4, or 6 capsules to deliver 25 mg, 50 mg, 75 mg, 100 mg, or 150 mg product, respectively, or the same number of placebo capsules.
Safety assessments and laboratory tests were carried out according to the schedules described in Table S4 for groups dosed every day, every 3 days, and 3 times a day. Follow-up visits were scheduled for 7 days after the last dose and subsequently once every week in order to assess the elimination of the main ABX464 metabolite and to assess the viral load. Follow-up visits were terminated when the virus load was within 0.5 log of the baseline value or after 3 follow-up visits, whichever came first. Prior to the statistical analyses, AEs were coded using the Medical Dictionary for Regulatory Activities (MedDRA dictionary; last available version) in order to be tabulated by system organ class (SOC) and preferred term (PT). The AEs were analyzed according to the treatment emergence phase from the first study drug administration on day 1 up to 48 h after the last study drug administration. The number and percentage of subjects with at least one TEAE were tabulated by SOC and PT for each group and dose. The number of occurrences of TEAEs was also analyzed in the same way by SOC and PT for each group and dose, by grade of severity for each group and dose, and by level of causality to the study drug for each group and dose.

[1] = Group 1 (n = 6), 25 mg every 3 days, Mild
[2] = Group 1 (n = 6), 25 mg every 3 days, Moderate
[3] = Group 2 (n = 6), 25 mg q.d., Mild
[4] = Group 2 (n = 6), 25 mg q.d., Moderate

In the case of FC(F)(F)Oc1ccc(Nc2ccc3cccc(Cl)c3n2)cc1 [ABX464], the Nausea frequency (75 mg q.d.) is reported as 66.7%, the “Subjects with a skin rash episode” value (75 mg q.d. under fed conditions, one episode of moderate intensity) is reported as “two” and the “Subjects with vomiting episodes” value (150 mg every 3 days) is reported as 50.0%. For the same molecule, the Nausea frequency (150 mg q.d.) was 100%, the Subjects reporting vomiting (16 subjects overall, no vomiting episodes in placebo) was 32% and the “Severity of adverse events” value (ABX464 treatment group) was “mild to moderate”. The “TEAEs leading to treatment discontinuation” value (ABX464 treatment group) was “none of the TEAEs led to treatment discontinuation”, the “Subjects reporting at least one episode of headache” value (ABX464 treatment groups) was 56% and the “Subjects experiencing at least one TEAE: Abdominal pain” value [1] was 0 (0.0) No. (%). The “Subjects experiencing at least one TEAE: Arthralgia” value (shortened to “Subjects experiencing … Arthralgia”) [1] was 0 (0.0) No. (%), the “Subjects experiencing at least one TEAE: Back pain” value [1] was 0 (0.0) No. (%) and the “Subjects experiencing at least one TEAE: Diarrhea” value (“Subjects experiencing … Diarrhea” below) [1] was 0 (0.0) No. (%). The “Subjects experiencing at least one TEAE: Flank pain” value (“Subjects experiencing … Flank pain” below) [1] was 0 (0.0) No. (%), the “Subjects experiencing at least one TEAE: Gastrointestinal disorders” value [1] was 2 (33.3) No. (%) and the “Subjects experiencing at least one TEAE: Headache” value (from here on “Subjects experiencing … Headache”) [1] was 0 (0.0) No. (%). For the same molecule, the “Subjects experiencing at least one TEAE: Injury, poisoning, and procedural complications” value [1] was 0 (0.0) No. (%), the “Subjects experiencing at least one TEAE: Musculoskeletal and connective tissue disorders” value [1] was 0 (0.0) No. (%) and the “Subjects experiencing at least one TEAE: Nausea” value (“Subjects experiencing … Nausea” for short) [1] was 1 (16.7) No. (%). The “Subjects experiencing at least one TEAE: Neck pain” value (shortened to “Subjects experiencing … Neck pain”) [1] was 0 (0.0) No. (%), the “Subjects experiencing at least one TEAE: Nervous system disorders” value [1] was 0 (0.0) No. (%) and the “Subjects experiencing at least one TEAE: Pain in extremity” value (shortened to “Subjects experiencing … in extremity”) [1] was 0 (0.0) No. (%). For the same molecule, the “Subjects experiencing at least one TEAE: Sciatica, back pain” value [1] was 0 (0.0) No. (%), the “Subjects experiencing at least one TEAE: Skin abrasion” value (shortened to “Subjects experiencing … Skin abrasion”) [1] was 0 (0.0) No. (%) and the “Subjects experiencing at least one TEAE: Total” value (shortened to “Subjects experiencing … Total”) [1] was 2 (33.3) No. (%). For the same molecule, the “Subjects experiencing at least one TEAE: Upper abdominal pain” value [1] was 0 (0.0) No. (%), the “Subjects experiencing at least one TEAE: Vomiting” value (“Subjects experiencing … Vomiting” for short) [1] was 1 (16.7) No. (%) and the “Subjects experiencing at least one TEAE: Abdominal pain” value [2] was 0 (0.0) No. (%). For the same molecule, the “Subjects experiencing … Arthralgia” value [2] was 0 (0.0) No. (%), the “Subjects experiencing at least one TEAE: Back pain” value [2] was 0 (0.0) No. (%) and the “Subjects experiencing … Diarrhea” value [2] was 0 (0.0) No. (%). The “Subjects experiencing … Flank pain” value [2] was 0 (0.0) No. (%), the “Subjects experiencing … Headache” value [2] was 0 (0.0) No. (%) and the “Subjects experiencing at least one TEAE: Injury, poisoning, and procedural complications” value [2] was 0 (0.0) No. (%). For the same molecule, the “Subjects experiencing at least one TEAE: Musculoskeletal and connective tissue disorders” value [2] was 1 (16.7) No. (%), the “Subjects experiencing … Nausea” value [2] was 0 (0.0) No. (%) and the “Subjects experiencing … Neck pain” value [2] was 0 (0.0) No. (%). For the same molecule, the “Subjects experiencing at least one TEAE: Nervous system disorders” value [2] was 0 (0.0) No. (%), the “Subjects experiencing … in extremity” value [2] was 0 (0.0) No. (%) and the “Subjects experiencing at least one TEAE: Sciatica, back pain” value [2] was 1 (16.7) No. (%). For the same molecule, the “Subjects experiencing … Skin abrasion” value [2] was 0 (0.0) No. (%), the “Subjects experiencing … Total” value [2] was 2 (33.3) No. (%) and the “Subjects experiencing at least one TEAE: Upper abdominal pain” value [2] was 0 (0.0) No. (%). For the same molecule, the “Subjects experiencing … Vomiting” value [2] was 0 (0.0) No. (%), the “Subjects experiencing at least one TEAE: Abdominal pain” value [3] was 0 (0.0) No. (%) and the “Subjects experiencing … Arthralgia” value [3] was 0 (0.0) No. (%). For the same molecule, the “Subjects experiencing at least one TEAE: Back pain” value [3] was 1 (16.7) No. (%), the “Subjects experiencing … Diarrhea” value [3] was 1 (16.7) No. (%) and the “Subjects experiencing … Flank pain” value [3] was 0 (0.0) No. (%). The “Subjects experiencing at least one TEAE: Gastrointestinal disorders” value [3] was 2 (33.3) No. (%), the “Subjects experiencing … Headache” value [3] was 1 (16.7) No. (%) and the “Subjects experiencing at least one TEAE: Injury, poisoning, and procedural complications” value [3] was 0 (0.0) No. (%). For the same molecule, the “Subjects experiencing at least one TEAE: Musculoskeletal and connective tissue disorders” value [3] was 1 (16.7) No. (%), the “Subjects experiencing … Nausea” value [3] was 0 (0.0) No. (%) and the “Subjects experiencing … Neck pain” value [3] was 0 (0.0) No. (%). For the same molecule, the “Subjects experiencing at least one TEAE: Nervous system disorders” value [3] was 1 (16.7) No. (%), the “Subjects experiencing … in extremity” value [3] was 0 (0.0) No. (%) and the “Subjects experiencing at least one TEAE: Sciatica, back pain” value [3] was 0 (0.0) No. (%). For the same molecule, the “Subjects experiencing … Skin abrasion” value [3] was 0 (0.0) No. (%), the “Subjects experiencing … Total” value [3] was 2 (33.3) No. (%) and the “Subjects experiencing at least one TEAE: Upper abdominal pain” value [3] was 0 (0.0) No. (%). The “Subjects experiencing … Vomiting” value [3] was 2 (33.3) No. (%), the “Subjects experiencing at least one TEAE: Abdominal pain” value [4] was 0 (0.0) No. (%) and the “Subjects experiencing … Arthralgia” value [4] was 0 (0.0) No. (%). The “Subjects experiencing at least one TEAE: Back pain” value [4] was 0 (0.0) No. (%), the “Subjects experiencing … Diarrhea” value [4] was 0 (0.0) No. (%) and the “Subjects experiencing … Flank pain” value [4] was 0 (0.0) No. (%). For the same molecule, the “Subjects experiencing … Headache” value [4] was 0 (0.0) No. (%), the “Subjects experiencing at least one TEAE: Injury, poisoning, and procedural complications” value [4] was 0 (0.0) No. (%) and the “Subjects experiencing at least one TEAE: Musculoskeletal and connective tissue disorders” value [4] was 0 (0.0) No. (%). The “Subjects experiencing … Nausea” value [4] was 0 (0.0) No. (%), the “Subjects experiencing … Neck pain” value [4] was 0 (0.0) No. (%) and the “Subjects experiencing at least one TEAE: Nervous system disorders” value [4] was 0 (0.0) No. (%). For the same molecule, the “Subjects experiencing … in extremity” value [4] was 0 (0.0) No. (%), the “Subjects experiencing at least one TEAE: Sciatica, back pain” value [4] was 0 (0.0) No. (%) and the “Subjects experiencing … Skin abrasion” value [4] was 0 (0.0) No. (%).
